In patent US10294202B2, “Pyrrolidinones as herbicides” (FMC Corporation, priority 2013, dated 2019):

Experiments:
ryegrass, Italian = assay: Test D pre-/postemergence herbicide test; format: in vivo, Lolium multiflorum; conditions: for Plant response rating: Postemergence, Ryegrass, Italian, scale 0 to 100; for Plant response rating, Ryegrass, Italian: Preemergence, scale 0 to 100 (0 no effect, 100 complete control)
Text: (§1) Seeds of plant species selected from bluegrass (annual bluegrass, Poa annua), blackgrass (Alopecurus myosuroides), canarygrass (littleseed canarygrass, Phalaris minor), chickweed (common chickweed, Stellaria media), galium (catchweed bedstraw, Galium aparine), bromegrass, downy (downy bromegrass, Bromus tectorum), field poppy (Papaver rhoeas), field violet (Viola arvensis), foxtail, green (green foxtail, Setaria viridis), deadnettle (henbit deadnettle, Lamium amplexicaule), ryegrass, Italian (Italian ryegrass, Lolium multiflorum), kochia (Kochia scoparia), lambsquarters (Chenopodium album), oilseed rape (Brassica napus), pigweed (Amaranthus retroflexus), chamomile (scentless chamomile, Matricaria inodora), Russian thistle (Salsola kali), speedwell (bird's-eye speedwell, Veronica persica), barley, spring (spring barley, Hordeum vulgare), wheat, spring (spring wheat, Triticum aestivum), buckwheat, wild (wild buckwheat, Polygonum convolvulus), mustard, wild (wild mustard, Sinapis arvensis), oat, wild (wild oat, Avena fatua), radish, wild (wild radish, Raphanus raphanistrum), […]), barley, winter (winter barley, Hordeum vulgare), and wheat, winter (winter wheat, Triticum aestivum) were planted into a silt loam soil and treated preemergence with test chemicals formulated in a non-phytotoxic solvent mixture which included a surfactant. At the same time, these species were planted in pots containing Redi-Earth® planting medium (Scotts Company, 14111 Scottslawn Road, Marysville, Ohio 43041) comprising spaghnum peat moss, vermiculite, wetting agent and starter nutrients and treated with postemergence applications of the test chemicals formulated in the same manner. Plants ranged in height from 2 to 18 cm (1- to 4-leaf stage). Treated plants and controls were maintained in a controlled growth environment for 7 to 21 days after which time all species were compared to controls and visually evaluated. Plant response ratings, summarized in Table D, are based on a scale of 0 to 100 where 0 is no effect and 100 is complete control. A dash (-) response means no test result.

galium = assay: Test D pre-/postemergence herbicide test; format: in vivo, Galium aparine; conditions: for Plant response rating: Galium, scale 0 to 100; for Plant response rating, Galium: scale 0 to 100 (0 no effect, 100 complete control)
Text: as §1

crabgrass, large = assay: Test E preemergence herbicide test; format: in vivo, Digitaria sanguinalis; parameters: key: 0 = no effect, 100 = complete control
Text: (§2) Seeds of plant species selected from corn (Zea mays), soybean (Glycine max), velvetleaf (Abutilon theophrasti), lambsquarters (Chenopodium album), wild poinsettia (Euphorbia heterophylla), pigweed, palmer (palmer pigweed, Amaranthus palmeri), waterhemp (common waterhemp, Amaranthus rudis), surinam grass (Brachiaria decumbens), crabgrass, large (large crabgrass, Digitaria sanguinalis), crabgrass, Brazil (Brazilian crabgrass, Digitaria horizontalis), panicum, fall (fall panicum, Panicum dichotomiflorum), foxtail, giant (giant foxtail, Setaria faberii), foxtail, green (green foxtail, Setaria viridis), goosegrass (Eleusine indica), johnsongrass (Sorghum halepense), ragweed (common ragweed, Ambrosia elatior), barnyardgrass (Echinochloa crus-galli), sandbur (southern sandbur, Cenchrus echinatus), arrowleaf […] rhombifolia), ryegrass, Italian (Italian ryegrass, Lolium multiflorum), dayflower, VA (Virginia dayflower, Commelina virginica), field bindweed (Convolvulus arvensis), morningglory (Ipomoea coccinea), nightshade (eastern black nightshade, Solanum ptycanthum), kochia (Kochia scoparia), nutsedge, yellow (yellow nutsedge, Cyperus esculentus), cocklebur (common cocklebur, Xanthium strumarium), smartweed (ladysthumb smartweed, Polygonum Persicaria) and beggarticks (hairy beggarticks, Bidens pilosa), were planted into a silt loam soil and treated preemergence with test chemicals formulated in a non-phytotoxic solvent mixture which included a surfactant. Treated plants and controls were maintained in a greenhouse for 21 days, after which time all species were compared to controls and visually evaluated. Plant response ratings, summarized in Table E, are based on a scale of 0 to 100 where 0 is no effect and 100 is complete control. A dash (-) response means no test result.

foxtail, green = assay: Test E preemergence herbicide test; format: in vivo, Setaria viridis; parameters: key: 0 = no effect, 100 = complete control
Text: as §2

soybean = assay: Test E preemergence herbicide test; format: in vivo, Glycine max; parameters: key: 0 = no effect, 100 = complete control
Text: as §2

lambsquarters = assay: Test E preemergence herbicide test; format: in vivo, Chenopodium album; parameters: key: 0 = no effect, 100 = complete control
Text: as §2

SMILES	Plant response rating (ryegrass, Italian; 16 g ai/ha)	Plant response rating (ryegrass, Italian; 31 g ai/ha)	Plant response rating (ryegrass, Italian; 62 g ai/ha)	Plant response rating (ryegrass, Italian; 125 g ai/ha)	Plant response rating (ryegrass, Italian; 250 g ai/ha)	Plant response rating, Ryegrass, Italian (ryegrass, Italian; 62 g ai/ha)	Plant response rating, Ryegrass, Italian (ryegrass, Italian; 125 g ai/ha)	Plant response rating, Ryegrass, Italian (ryegrass, Italian; 16 g ai/ha)	Plant response rating, Ryegrass, Italian (ryegrass, Italian; 31 g ai/ha)	Plant response rating, Ryegrass, Italian (ryegrass, Italian; 250 g ai/ha)	Plant response rating (galium; Postemergence, 16 g ai/ha)	Plant response rating (galium; Postemergence, 31 g ai/ha)	Plant response rating (galium; Postemergence, 62 g ai/ha)	Plant response rating (galium; Postemergence, 125 g ai/ha)	Plant response rating (galium; Postemergence, 250 g ai/ha)	Plant response rating, Galium (galium; Preemergence, 62 g ai/ha)	Plant response rating, Galium (galium; Preemergence, 16 g ai/ha)	Plant response rating, Galium (galium; Preemergence, 31 g ai/ha)	Plant response rating (galium; Preemergence, 125 g ai/ha)	Plant response rating (galium; Preemergence, 250 g ai/ha)	also measured
O=C1NCC(c2ccc(F)c(F)c2)C1C(=O)Nc1ccccc1C(F)(F)F (racemic) [Compound 6]	0	0	0	0	0	0	0	0	0	0	0	0	0	0	0	50	0	0	100	100	–
O=C1NCC(c2ccc(Cl)c(Cl)c2)C1C(=O)Nc1ccccc1F (racemic) [Compound 14]	–	–	–	–	–	–	–	–	–	–	–	–	–	–	–	–	–	–	–	–	Plant response rating, Crabgrass, Large (crabgrass, large; 16 g ai/ha): 0; Plant response rating, Crabgrass, Large (crabgrass, large; 62 g ai/ha): 25; Plant response rating, Crabgrass, Large (crabgrass, large; 125 g ai/ha): 90; Plant response rating, Crabgrass, Large (crabgrass, large; 250 g ai/ha): 90; Plant response rating, Foxtail, Green (foxtail, green; 16 g ai/ha): 0; Plant response rating, Foxtail, Green (foxtail, green; 31 g ai/ha): 0; Plant response rating, Foxtail, Green (foxtail, green; 62 g ai/ha): 0; Plant response rating, Foxtail, Green (foxtail, green; 125 g ai/ha): 10; Plant response rating, Foxtail, Green (foxtail, green; 250 g ai/ha): 70; Plant response rating, Soybean (soybean; 16 g ai/ha): 0; Plant response rating, Soybean (soybean; 31 g ai/ha): 0; Plant response rating, Soybean (soybean; 62 g ai/ha): 0; Plant response rating, Soybean (soybean; 125 g ai/ha): 0; Plant response rating, Soybean (soybean; 250 g ai/ha): 0; Plant response rating, Lambsquarters (lambsquarters; 16 g ai/ha): 0; Plant response rating, Lambsquarters (lambsquarters; 31 g ai/ha): 0; Plant response rating, Lambsquarters (lambsquarters; 62 g ai/ha): 0; Plant response rating, Lambsquarters (lambsquarters; 125 g ai/ha): 50; Plant response rating, Lambsquarters (lambsquarters; 250 g ai/ha): 70
O=C1NCC(c2ccc(F)c(C(F)(F)F)c2)C1C(=O)Nc1cccc(F)c1F (racemic) [Compound 77]	–	–	–	–	–	15	25	–	15	35	–	–	–	–	–	55	–	35	85	85	–
O=C1NCC(c2ccc(OC(F)F)cc2)C1C(=O)Nc1cccc(F)c1F (racemic) [Compound 350]	–	–	–	–	–	–	–	–	–	–	–	–	–	–	–	–	–	–	–	–	Plant response rating, Crabgrass, Large (crabgrass, large; 31 g ai/ha): 50; Plant response rating, Crabgrass, Large (crabgrass, large; 62 g ai/ha): 70; Plant response rating, Crabgrass, Large (crabgrass, large; 125 g ai/ha): 98; Plant response rating, Crabgrass, Large (crabgrass, large; 250 g ai/ha): 98; Plant response rating, Foxtail, Green (foxtail, green; 31 g ai/ha): 20; Plant response rating, Foxtail, Green (foxtail, green; 62 g ai/ha): 35; Plant response rating, Foxtail, Green (foxtail, green; 125 g ai/ha): 80; Plant response rating, Foxtail, Green (foxtail, green; 250 g ai/ha): 85; Plant response rating, Soybean (soybean; 31 g ai/ha): 0; Plant response rating, Soybean (soybean; 62 g ai/ha): 0; Plant response rating, Soybean (soybean; 125 g ai/ha): 0; Plant response rating, Soybean (soybean; 250 g ai/ha): 0; Plant response rating, Lambsquarters (lambsquarters; 31 g ai/ha): 80; Plant response rating, Lambsquarters (lambsquarters; 62 g ai/ha): 60; Plant response rating, Lambsquarters (lambsquarters; 125 g ai/ha): 98; Plant response rating, Lambsquarters (lambsquarters; 250 g ai/ha): 95
O=C1NCC(c2cc(F)c(F)cc2F)C1C(=O)Nc1cccc(F)c1F (stereo not shown) [Compound 50]	0	0	0	0	–	0	0	0	0	–	0	0	0	0	–	0	0	0	0	–	–
O=C1NCC(c2ccc(Cl)c(F)c2)C1C(=O)Nc1cccc(F)c1F (stereo not shown) [Compound 52]	0	0	0	0	0	0	0	40	0	0	0	0	0	25	35	0	0	0	0	20	–
O=C1NCC(c2ccc(C(F)(F)F)cc2)C1C(=O)Nc1ccccc1F (stereo not shown) [Compound 231]	–	0	0	0	0	0	0	–	0	0	–	40	45	55	55	40	–	20	–	40	Plant response rating, Galium (galium; Preemergence, 125 g ai/ha): 35
